Reference: ChEMBL document CHEMBL1201862, “PubChem BioAssay data set” (2004)
Active and inactive are the calls of the source.

Legend:
[1] = target: NACHT, LRR and PYD domains-containing protein 3 (Homo sapiens, UniProt Q96P20); experiment: NALP3 inhibitors in yeast, dose response, luminescent (AID 488799); assay type: functional
[2] = target: Luciferin 4-monooxygenase (Photinus pyralis, UniProt P08659); experiment: firefly luciferase enzyme inhibitors, dose response, biochemical, luminescence (AID 1891)
Luciferin 4-monooxygenase, sequence (P08659 whole entry): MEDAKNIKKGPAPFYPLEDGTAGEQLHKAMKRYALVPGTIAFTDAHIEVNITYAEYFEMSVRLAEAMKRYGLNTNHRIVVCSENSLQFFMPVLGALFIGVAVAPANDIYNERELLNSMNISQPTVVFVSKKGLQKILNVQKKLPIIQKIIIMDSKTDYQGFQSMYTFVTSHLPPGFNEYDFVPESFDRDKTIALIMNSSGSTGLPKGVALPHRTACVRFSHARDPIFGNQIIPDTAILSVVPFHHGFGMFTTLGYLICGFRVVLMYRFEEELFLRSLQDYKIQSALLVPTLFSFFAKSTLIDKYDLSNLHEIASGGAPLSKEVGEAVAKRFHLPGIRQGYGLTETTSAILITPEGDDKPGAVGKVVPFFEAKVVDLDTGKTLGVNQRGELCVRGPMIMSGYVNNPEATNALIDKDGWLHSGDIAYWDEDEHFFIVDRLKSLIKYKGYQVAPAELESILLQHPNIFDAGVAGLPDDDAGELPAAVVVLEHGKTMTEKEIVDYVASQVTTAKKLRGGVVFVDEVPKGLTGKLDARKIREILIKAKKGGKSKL

[3] = Luminescence Cell-Based Dose Confirmation HTS to Identify Inhibitors of Platelet Dense Granule Release. [Related pubchem assays: 1663 (Primary HTS), 1678 (Summary of Project)]; assay type: functional
[4] = inhibitors of SFLLRN-triggered platelet P-selectin exposure, dose response, cell-based, fluorescence, flow cytometry, human platelets (AID 2511); assay type: functional
[5] = blockers of SFLLRN-triggered platelet ATP secretion – cell-based, human platelets, luminescence, dry powder, dose response (AID 493100); assay type: functional
[6] = target: Potassium voltage-gated channel subfamily KQT member 2 (Rattus norvegicus, UniProt O88943, W236L); experiment: KCNQ2 channel potentiators, dose response, mechanism study for KCNQ2 potentiator project, cell-based, automated electrophysiology (AID 2603); assay type: functional
Potassium voltage-gated channel subfamily KQT member 2 (Rattus norvegicus, UniProt O88943, W236L), sequence (O88943 whole entry W236L): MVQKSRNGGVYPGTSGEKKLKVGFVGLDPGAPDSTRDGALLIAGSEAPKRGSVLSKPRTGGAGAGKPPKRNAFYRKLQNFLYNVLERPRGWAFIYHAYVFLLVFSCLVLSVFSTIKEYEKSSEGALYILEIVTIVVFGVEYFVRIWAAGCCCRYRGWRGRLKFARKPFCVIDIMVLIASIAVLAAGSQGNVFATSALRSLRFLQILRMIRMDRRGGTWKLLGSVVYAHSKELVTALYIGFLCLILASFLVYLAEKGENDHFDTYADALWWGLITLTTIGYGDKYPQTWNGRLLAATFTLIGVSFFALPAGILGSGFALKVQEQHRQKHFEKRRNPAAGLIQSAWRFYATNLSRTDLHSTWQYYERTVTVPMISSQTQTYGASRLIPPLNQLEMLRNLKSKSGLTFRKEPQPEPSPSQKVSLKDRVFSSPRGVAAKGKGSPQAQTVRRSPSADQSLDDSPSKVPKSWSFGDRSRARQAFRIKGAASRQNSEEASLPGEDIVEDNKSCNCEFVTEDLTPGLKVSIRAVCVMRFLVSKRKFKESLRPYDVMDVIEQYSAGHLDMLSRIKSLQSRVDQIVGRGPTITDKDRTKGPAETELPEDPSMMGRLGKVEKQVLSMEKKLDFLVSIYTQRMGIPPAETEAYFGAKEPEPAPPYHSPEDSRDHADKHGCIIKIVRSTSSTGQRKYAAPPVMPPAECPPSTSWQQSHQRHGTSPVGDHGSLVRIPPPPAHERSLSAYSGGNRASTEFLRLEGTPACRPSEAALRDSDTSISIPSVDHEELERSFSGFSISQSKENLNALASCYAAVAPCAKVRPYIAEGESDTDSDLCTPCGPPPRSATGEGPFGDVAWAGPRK

[7] = target: Potassium voltage-gated channel subfamily KQT member 2 (Rattus norvegicus, UniProt O88943); experiment: retigabine-insensitive KCNQ2 potentiators, concentration-response, dose response, cell-based, retigabine-insensitive compounds (AID 2654); assay type: functional
Potassium voltage-gated channel subfamily KQT member 2 (Rattus norvegicus, UniProt O88943), sequence (O88943 whole entry): as the sequence (O88943 whole entry W236L) above, with L236W counted along it

[8] = target: Voltage-gated N-type calcium channel alpha-1B subunit/Amyloid beta A4 precursor protein-binding family A member 1 (Homo sapiens, UniProt Q00975+Q02410); experiment: disruptors of Mint-PDZ/N-type channel peptide interaction – biochemical, HTRF, set 2, SAR follow-up (AID 434980); assay type: functional
Voltage-gated N-type calcium channel alpha-1B subunit/Amyloid beta A4 precursor protein-binding family A member 1, sequence (Q00975 whole entry): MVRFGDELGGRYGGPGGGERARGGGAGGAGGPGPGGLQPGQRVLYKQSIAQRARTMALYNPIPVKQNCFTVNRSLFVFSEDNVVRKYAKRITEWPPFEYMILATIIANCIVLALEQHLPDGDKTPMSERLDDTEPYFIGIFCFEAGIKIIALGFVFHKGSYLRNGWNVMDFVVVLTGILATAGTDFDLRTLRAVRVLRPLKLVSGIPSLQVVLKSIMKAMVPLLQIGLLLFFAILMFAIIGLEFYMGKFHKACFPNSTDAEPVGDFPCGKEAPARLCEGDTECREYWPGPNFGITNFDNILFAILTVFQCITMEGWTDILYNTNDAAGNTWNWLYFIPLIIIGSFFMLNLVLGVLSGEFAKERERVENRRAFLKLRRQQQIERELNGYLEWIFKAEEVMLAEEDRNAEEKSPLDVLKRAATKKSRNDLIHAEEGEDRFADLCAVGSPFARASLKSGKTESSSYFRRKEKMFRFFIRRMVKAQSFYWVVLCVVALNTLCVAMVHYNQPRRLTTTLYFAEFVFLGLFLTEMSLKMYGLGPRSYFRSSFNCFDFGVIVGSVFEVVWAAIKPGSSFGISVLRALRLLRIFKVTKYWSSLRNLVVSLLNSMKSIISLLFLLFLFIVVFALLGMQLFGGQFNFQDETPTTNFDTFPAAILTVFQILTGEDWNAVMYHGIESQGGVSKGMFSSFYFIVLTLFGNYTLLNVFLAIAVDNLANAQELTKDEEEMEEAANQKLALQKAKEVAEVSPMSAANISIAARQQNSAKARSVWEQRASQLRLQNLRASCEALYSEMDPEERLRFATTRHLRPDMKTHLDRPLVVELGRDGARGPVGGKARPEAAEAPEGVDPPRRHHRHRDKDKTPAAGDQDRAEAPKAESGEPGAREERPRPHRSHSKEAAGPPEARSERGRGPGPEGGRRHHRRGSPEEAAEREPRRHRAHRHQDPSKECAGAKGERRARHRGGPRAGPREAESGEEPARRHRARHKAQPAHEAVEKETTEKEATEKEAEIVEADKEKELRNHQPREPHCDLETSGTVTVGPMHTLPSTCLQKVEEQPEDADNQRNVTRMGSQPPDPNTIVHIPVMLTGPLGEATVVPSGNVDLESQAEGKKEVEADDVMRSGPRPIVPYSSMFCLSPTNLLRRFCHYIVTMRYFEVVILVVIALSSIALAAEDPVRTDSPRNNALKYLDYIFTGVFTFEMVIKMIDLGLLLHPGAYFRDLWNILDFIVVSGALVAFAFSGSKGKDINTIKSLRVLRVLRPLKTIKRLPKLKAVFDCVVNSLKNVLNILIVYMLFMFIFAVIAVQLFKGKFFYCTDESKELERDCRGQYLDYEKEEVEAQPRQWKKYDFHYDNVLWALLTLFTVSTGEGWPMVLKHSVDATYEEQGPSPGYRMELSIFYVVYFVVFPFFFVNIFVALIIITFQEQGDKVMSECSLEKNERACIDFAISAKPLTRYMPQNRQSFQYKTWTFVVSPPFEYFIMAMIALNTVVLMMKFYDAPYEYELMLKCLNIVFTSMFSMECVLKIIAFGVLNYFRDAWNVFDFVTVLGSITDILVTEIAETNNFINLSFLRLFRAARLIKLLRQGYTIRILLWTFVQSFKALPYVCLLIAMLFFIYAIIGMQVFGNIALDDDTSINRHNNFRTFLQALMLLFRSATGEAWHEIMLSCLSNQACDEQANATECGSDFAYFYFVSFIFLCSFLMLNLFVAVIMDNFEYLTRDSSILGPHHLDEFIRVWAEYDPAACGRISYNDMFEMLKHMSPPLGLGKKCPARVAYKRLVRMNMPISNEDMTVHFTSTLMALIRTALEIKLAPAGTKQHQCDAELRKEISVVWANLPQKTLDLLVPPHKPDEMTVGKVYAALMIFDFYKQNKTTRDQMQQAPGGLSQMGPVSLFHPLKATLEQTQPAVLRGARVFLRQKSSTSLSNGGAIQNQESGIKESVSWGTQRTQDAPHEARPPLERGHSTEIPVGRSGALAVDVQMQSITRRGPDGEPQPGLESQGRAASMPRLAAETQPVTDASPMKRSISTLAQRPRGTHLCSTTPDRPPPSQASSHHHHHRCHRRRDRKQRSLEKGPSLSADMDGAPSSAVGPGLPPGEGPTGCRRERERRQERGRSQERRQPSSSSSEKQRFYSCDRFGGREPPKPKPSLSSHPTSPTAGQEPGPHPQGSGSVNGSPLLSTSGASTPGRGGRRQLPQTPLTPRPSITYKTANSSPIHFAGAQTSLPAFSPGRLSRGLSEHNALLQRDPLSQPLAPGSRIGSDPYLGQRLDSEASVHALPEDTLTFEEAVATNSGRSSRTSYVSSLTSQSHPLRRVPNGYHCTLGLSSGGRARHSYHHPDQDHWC
Voltage-gated N-type calcium channel alpha-1B subunit/Amyloid beta A4 precursor protein-binding family A member 1, sequence (Q02410 whole entry): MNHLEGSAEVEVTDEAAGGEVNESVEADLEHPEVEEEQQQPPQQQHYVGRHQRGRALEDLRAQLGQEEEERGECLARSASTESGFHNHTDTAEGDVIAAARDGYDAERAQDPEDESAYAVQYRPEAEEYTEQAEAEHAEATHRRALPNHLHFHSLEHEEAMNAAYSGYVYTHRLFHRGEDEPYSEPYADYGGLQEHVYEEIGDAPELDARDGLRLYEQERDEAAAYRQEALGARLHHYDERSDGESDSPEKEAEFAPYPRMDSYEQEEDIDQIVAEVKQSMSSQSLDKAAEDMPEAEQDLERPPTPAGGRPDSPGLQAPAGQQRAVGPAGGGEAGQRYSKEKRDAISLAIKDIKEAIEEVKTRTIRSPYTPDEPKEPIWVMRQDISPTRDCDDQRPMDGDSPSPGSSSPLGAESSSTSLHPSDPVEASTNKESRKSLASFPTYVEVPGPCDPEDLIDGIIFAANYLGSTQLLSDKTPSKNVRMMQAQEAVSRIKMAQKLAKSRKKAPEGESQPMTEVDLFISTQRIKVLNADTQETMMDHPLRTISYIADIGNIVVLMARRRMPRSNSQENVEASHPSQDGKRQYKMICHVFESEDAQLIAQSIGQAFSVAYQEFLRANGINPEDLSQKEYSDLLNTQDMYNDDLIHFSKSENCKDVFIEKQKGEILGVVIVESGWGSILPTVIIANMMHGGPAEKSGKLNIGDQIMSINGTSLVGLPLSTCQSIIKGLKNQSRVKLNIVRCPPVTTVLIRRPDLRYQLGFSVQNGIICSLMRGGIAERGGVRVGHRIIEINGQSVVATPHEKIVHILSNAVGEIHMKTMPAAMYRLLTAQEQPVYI

[9] = target: Metabotropic glutamate receptor 4 (Rattus norvegicus, UniProt P31423); experiment: Modulation of the Metabotropic Glutamate Receptor mGluR4: Rat PAM Potency. [Related pubchem assays (depositor defined):AID2437, AID2807]; assay type: functional

**Q.** Which IC50 [1] does the source give for `c1ccc(OCc2nnnn2-c2ccccc2)cc1` here?
**A.** 6 µM (active)

**Q.** With `Cc1ccc(-c2c(C#N)c(N)n(-c3ccc(C)cc3)c(=O)c2C#N)cc1` as the compound, how does the EC50 [2] read?
**A.** > 112 µM (not active)

**Q.** What about the EC50 [3] of the same compound?
**A.** 2.3 µM (active)

**Q.** What about the EC50 [4] of the same compound?
**A.** < 3 µM (active)

**Q.** And the AC50 [5]?
**A.** 9.08 µM (active)

**Q.** What does the source list for `S=C(Nc1ccc(Oc2ccccc2)cc1)Nc1cccnc1`?
**A.** EC50 [6]: 7.25 µM (active); EC50 [7]: 4.45 µM (active)

**Q.** With `CC(C)CCNC(=O)c1cc(-c2ccco2)nc2ccccc12` as the compound, how does the IC50 [8] read?
**A.** > 56.8 µM (inactive)

**Q.** With `O=C(Nc1ccc(NC(=O)c2ccccc2Cl)c(F)c1)c1ccccn1` as the compound, how does the EC50 [9] read?
**A.** 740 nM (active)
